Assay results: patent publication EP3008041B1, “3-CARBAMOYL-1-METHYL[…], PROCESS FOR ITS PREPARATION AND ITS USE” (Uniwersytet Jagiellonski, priority 2013, dated 2014)
Like-named read-outs stand apart in the source and are kept apart here.

Tests used:
normotensive rats = details: 30 mg/kg i.v., single dose 10 min before induction of thrombosis
Description: The normotensive and hypertensive rats were then anesthetised with pentorbital (40 mg/kg, i.p.). After removing the skin in the neck region, an approximately 0.5 cm long section of the left common carotid artery was isolated. To avoid haemorrhaging, the isolation was performed by tearing the surrounding tissues of the artery without the use of sharp instruments. The method of arterial thrombosis (according to Schumacher et al., 1996) with own modification (Kramkowski et al., 2012) involves damage to the endothelium isolated from a section of the artery by electric current (1 mA, 5-15 V, 10 min.). The anode is a stainless steel wire with a bent hook-shaped tip placed in a holder to remain stable during the experiment. Its tip was placed under the artery. A piece of parafilm was placed under the artery to keep it isolated. The cathode was a needle inserted subcutaneously in the hind limb region. Once the stimulation is completed, the formation of thrombus lasts 45 minutes. After this time, the artery was ligated at both sides of the thrombus, and the damaged fragment containing the thrombus was excised. The thrombus was quantitatively extracted from the artery and transferred to a previously tared microscope cover slip. The thrombi were allowed to dry (at room temperature and average humidity) and weighed not earlier than after 24 hours.

platelets = details: hypertensive rats after arterial thrombosis, 3 days per os twice a day (FIG. 2)
Description: The blood was diluted with 0.9% NaCl at a ratio of 1:1 and stirred in an aggregation cuvette at 1200 rpm. Samples of the stirred blood were collected after 20, 40 and 60 min and at "0" time and mixed with a cold solution of ASA (final concentration: 500 µM) at a ratio of 1:1. In these samples, TxB2 was determined using the ELISA assay, according to the manual provided by the manufacturer of the reagent kit.

[1] = colour change from pale yellow to brown
[2] = TG technique under a nitrogen atmosphere
Description: Thermal stability was determined using the TG technique under a nitrogen atmosphere (with the use of the Mettler Toledo Star TGA/DSC 1 device).

[3] = pharmacokinetics of MNA in rat plasma after single intravenous administration; type: in vivo, rats; details: 100 mg/kg
Description: (§1) A method using high performance liquid chromatography combined with tandem mass spectrometry (LC/ESI-MS/MS) was developed and validated to determine concentrations of 1-methylnicotinamide (MNA) in rat plasma. […] The pharmacokinetic parameters were determined by a non-compartmental model using Phoenix WinNonlin software (Pharsight, Sannyvale, CA, USA).

[4] = test system: plasma coagulation system
Description: Coagulation parameters: prothrombin time (PT), activated partial thromboplastin time (aPTT), fibrinogen concentration by Caluss and the prothrombin time percentage ratio (Quick index) were assessed in frozen plasma (-80°C) using a Caog-Chrom 3003 Bio-ksel Grudzi ? dz device.

[5] = pharmacokinetics of MNA in rat plasma after single intragastric administration; type: in vivo, rats; details: 100 mg/kg; for AUC0→∞ / Cmax / F / MRT / t0.5 / tmax: MNA in rat plasma, single intragastric administration
Description: as §1

[6] = remark: listed apart in the source
Description: The complete blood count was assessed approximately 2 minutes after collection in fresh citrated blood using an automatic Horiba ABC Vet device. The following parameters were assessed: white blood cell count (WBC), red blood cell count (RBC), haemoglobin (HGB), haematocrit (HCT), mean corpuscular volume (MCV), mean corpuscular haemoglobin (MCH), mean corpuscular haemoglobin concentration (MCHC) and platelet count (PLT).

[7] = hypertensive (2K1C) rats
fibrin = details: hypertensive (2K1C) rats, 30 mg/kg i.v.
[8] = hypertensive (2K1C) rats, 30 mg/kg i.v.
[9] = hypertensive (2K1C) rats, 30 mg/kg p.o.
[10] = normotensive rats, 10 mg/kg i.v.
[11] = normotensive rats, 30 mg/kg i.v.
[12] = normotensive rats, 100 mg/kg i.v.

In the case of `C[n+]1cccc(C(N)=O)c1.O=N[O-]` [MNANO2, 3-carbamoyl-1-methylpyridinium nitrite], the Thrombus weight (normotensive rats) is reported as 0.78 ± 0.05 mg, the “thromboxane B2 (TxB2) production by platelets ex vivo” value (platelets) is reported as “inhibition of thromboxane B2 (TxB2) production” and the solubility (DMSO) is reported as “soluble”. The solubility (diethyl ether) was “not soluble”, the solubility (ethanol) was “soluble” and the solubility (hexane) was “not soluble”. The solubility (methanol) was “soluble”, the solubility (water) was “soluble” and the “stability of aqueous solutions” value [1] was “not stable over time”. For the same compound, the Tonset [2] was 195 °C, the Tonset5% [2] was 170 °C and the “AUC0→∞” value [3] was 6,948,716 ± 1,810,664 µg·min/L. The Cl [3] was 0.015 ± 0.003 L/min/kg, the Co [3] was 138,078 ± 33,208 µg/L and the Vss [3] was 0.63 ± 0.1 L/kg. The t0.5 [3] was 61.7 ± 19.6 min, the APTT [4, 8] was 18.46 ± 0.81 s and the Fglevel [4, 8] was 2.36 ± 0.13 ng/mL. For the same compound, the PT [4, 8] was 17.40 ± 0.69 s, the QUICK [4, 8] was 63.50±5.04 and the APTT [4, 9] was 17.79 ± 0.62 s. It also gave a Fglevel [4, 9] of 2.61 ± 0.10 ng/mL, a PT [4, 9] of 18.16 ± 0.47 s and a QUICK [4, 9] of 62.00±4.01. The APTT [4, 10] was 2.00 ± 2.68 s, the Fglevel [4, 10] was 2.04 ± 0.09 ng/mL and the PT [4, 10] was 18.23 ± 0.68 s. The QUICK [4, 10] was 61.75±5.42, the APTT [4, 11] was 25.67 ± 6.07 s and the Fglevel [4, 11] was 2.15 ± 0.28 ng/mL. For the same compound, the PT [4, 11] was 18.10 ± 0.81 s, the QUICK [4, 11] was 63.00±7.57 and the APTT [4, 12] was 26.27 ± 2.89 s. The Fglevel [4, 12] was 1.96 ± 0.11 ng/mL, the PT [4, 12] was 19.17 ± 0.27 s and the QUICK [4, 12] was 53.33±1.67. The “AUC0→∞” value [5] was 638,056 ± 167,631 µg·min/L, the Cmax [5] was 8,881 ± 5,506 µg/L and the F [5] was 9.18%. It also gave an MRT [5] of 232 ± 38.3 min, a t0.5 [5] of 178.4 ± 12.2 min and a tmax [5] of 15 ± 10 min. For the same compound, the “concentration in rat plasma compared to MNACl administration” value ([5]; intragastric administration) was “three times higher”, the “time of occurrence of the maximum concentration compared to MNACl administration” value ([5]; intragastric administration) was “four times shorter” and the HCT [6, 8] was 38.35±0.49%. For the same compound, the HGB [6, 8] was 12.27 ± 0.16 g/dL, the MCH [6, 8] was 17.51±0.26 pg per cell and the MCHC [6, 8] was 31.65 ± 0.21 g/dL. The MCV [6, 8] was 54.86 ± 0.60 fL, the PLT [6, 8] was 621±18 103/µL and the RBC [6, 8] was 7.36±0.19 106/µL. For the same compound, the WBC [6, 8] was 2.87±0.35 106/µL, the HCT [6, 9] was 40.07±0.03% and the HGB [6, 9] was 13.23 ± 0.24 g/dL. The MCH [6, 9] was 18.77±0.71 pg per cell, the MCHC [6, 9] was 32.97 ± 0.58 g/dL and the MCV [6, 9] was 57.00 ± 1.53 fL. For the same compound, the PLT [6, 9] was 630±12 103/µL, the RBC [6, 9] was 7.05±0.18 106/µL and the WBC [6, 9] was 2.93±0.26 106/µL. For the same compound, the HCT [6, 10] was 30.03±1.26%, the HGB [6, 10] was 12.15 ± 0.26 g/dL and the MCH [6, 10] was 25.05±0.53 pg per cell. For the same compound, the MCHC [6, 10] was 40.93 ± 1.00 g/dL, the MCV [6, 10] was 61.25 ± 0.25 fL and the PLT [6, 10] was 493±17 10^3/µl. The RBC [6, 10] was 4.90±0.18 106/µl, the WBC [6, 10] was 1.95±0.35 106/µl and the HCT [6, 11] was 29.07±1.61%. For the same compound, the HGB [6, 11] was 12.30 ± 0.26 g/dL, the MCH [6, 11] was 25.73±0.92 pg per cell and the MCHC [6, 11] was 42.40 ± 1.32 g/dL. The MCV [6, 11] was 60.68 ± 0.33 fL, the PLT [6, 11] was 489±23 10^3/µl and the RBC [6, 11] was 4.80±0.29 106/µl. For the same compound, the WBC [6, 11] was 1.77±0.43 106/µl, the HCT [6, 12] was 33.33±1.31% and the HGB [6, 12] was 12.67 ± 0.47 g/dL. It also gave an MCH [6, 12] of 25.53±0.48 pg per cell, an MCHC [6, 12] of 37.97 ± 0.18 g/dL and an MCV [6, 12] of 62.00 ± 1.16 fL. For the same compound, the PLT [6, 12] was 566±56 10^3/µl, the RBC [6, 12] was 5.38±0.21 106/µl and the WBC [6, 12] was 1.12±0.19 106/µl. The “Concentration of MNA in plasma after collecting thrombus” value ([7]; 30 mg/kg i.v.) was 8.72 ± 4.90 nmol/mL, the “Concentration of MNA in plasma after collecting thrombus” value ([7]; 30 mg/kg p.o.) was 5.76 ± 3.78 nmol/mL and the “Generation of fibrin (AUC)” value (fibrin) was 186.00±10.23.

With `C[n+]1cccc(C(N)=O)c1.[Cl-]` [MNACl, 3-carbamoyl-1-methylpyridinium chloride, reference compound] the “AUC0→∞” value [3] was 4,362,231 ± 999,203 µg·min/L, the Co [3] was 141,311 ± 56,500 µg/L and the clearance [3] was 24 ± 5 mL/min/kg. For the same compound, the t0.5 [3] was 162.5 ± 76.2 min, the Vd ([3]; read-out: Vss) was 1.06 ± 0.35 L/kg and the MRT ([3]; rat, plasma, iv) was ~43 min. For the same compound, the “AUC0→∞” value [5] was 407,132 ± 164,906 µg·min/L, the F [5] was 9.33% and the t0.5 [5] was 247.4 ± 201 min. The Cmax ([5]; po, read-out: Cmax) was 2810 ng/mL, the MRT ([5]; po, read-out: MRT (converted)) was 359 min and the tmax ([5]; po, read-out: tmax (converted)) was 57.5 min.
